Patent publication US20090247554A1, “KINASE INHIBITORS” (TAKEDA SAN DIEGO, INC., priority 2006, published 2009)

biological target: T1, Aurora A Kinase (Homo sapiens, UniProt O14965); assay: Determination of inhibition of AIK (Aurora A kinase) by direct fluorescence polarization (IMAP); assay type: biochemical; conditions: read-out: IC50 of Exemplified Compounds Against Aurora A Kinase
T1 sequence (O14965 1-403): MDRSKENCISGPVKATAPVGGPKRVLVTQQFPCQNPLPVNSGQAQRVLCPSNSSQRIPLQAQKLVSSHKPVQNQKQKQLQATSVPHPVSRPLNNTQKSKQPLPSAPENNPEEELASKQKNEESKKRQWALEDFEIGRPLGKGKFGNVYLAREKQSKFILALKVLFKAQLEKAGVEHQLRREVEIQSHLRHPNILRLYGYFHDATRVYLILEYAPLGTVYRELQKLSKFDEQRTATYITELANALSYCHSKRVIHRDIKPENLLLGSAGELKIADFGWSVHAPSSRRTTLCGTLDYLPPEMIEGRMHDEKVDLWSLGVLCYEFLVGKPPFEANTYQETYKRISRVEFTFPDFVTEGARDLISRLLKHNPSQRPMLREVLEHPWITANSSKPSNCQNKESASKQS
Method: A. Determination of Inhibition of AIK
The inhibitory properties of compounds relative to AIK may be determined by the Direct Fluorescence Polarization detection method (FP) using a Greiner small volume black 384-well-plate format under the following reaction conditions: 50 mM Hepes pH 7.3, 10 mM MgCl2, 10 mM NaCl, 1 mM DTT, 0.01% Brij35, 100 nM Fluorescein-LRRASLG peptide (provided by SYNPEP), 5% DMSO, 2.5 uM ATP. Detection of the reaction product is performed by addition of IMAP binding reagent (Molecular Devices). Reaction product may be determined quantitatively by FP using an Analyst HT plate reader (Molecular Devices) with an excitation wavelength at 485 nm and emission at 530 nm and using a Fluorescein 505 dichroic mirror.
The assay reaction may be initiated as follows: 2 ul of (3×) 300 nM Fl-Peptide/7.5 uM ATP was added to each well of the plate, followed by the addition of 2 ul of (3×) inhibitor (2.5 fold serial dilutions for 11 data points for each inhibitor) containing 15% DMSO. 2 ul of (3×) 7.5 nM AIK solution may be added to initiate the reaction (final enzyme concentration was 2.5 nM for AIK). The reaction mixture may then be incubated at room temperature for 45 min, and quenched and developed by addition of 20 ul of 1 to 400 diluted IMAP binding reagent in 1× proprietary IMAP binding buffer. Fluorescence polarization readings of the resulting reaction mixtures may be measured after a 60-minute incubation at room temperature.
IC50 values may be calculated by non-linear curve fitting of the compound concentrations and fluorescent polarization values to the standard IC50 equation.

| Structure (SMILES) | IC50 |
| --- | --- |
| Cc1cc(Nc2nc(Sc3ccc(NC(=O)C4CC4)cc3)nc3sc(C)cc23)n[nH]1 [Example 8, N-(4-(6-Methyl-4-(5-methyl-1H-pyrazol-3-ylamino)thieno[2,3-d]pyrimidin-2-ylthio)phenyl)cyclopropanecarboxamide] | ≤ 0.05 µM |
| CCS(=O)(=O)n1ccc2ccc(-c3nc(Nc4cc(C)[nH]n4)c4cscc4n3)cc21 [Example 6, [2-(1-Ethanesulfonyl-1H-indol-6-yl)-thieno[3,4-d]pyrimidin-4-yl]-(5-methyl-1H-pyrazol-3-yl)-amine] | ≤ 0.05 µM |
| CCS(=O)(=O)c1cccc(-c2nc(Nc3cc(C)[nH]n3)c3cscc3n2)c1 [Example 5, [2-(3-Ethanesulfonyl-phenyl)-thieno[3,4-d]pyrimidin-4-yl]-(5-methyl-1H-pyrazol-3-yl)-amine] | ≤ 0.05 µM |
| CCS(=O)(=O)c1cccc(-c2nc(Nc3cc(C)[nH]n3)c3cc(C)sc3n2)c1 [Example 7, 2-(3-(ethylsulfonyl)phenyl)-6-methyl-N-(5-methyl-1H-pyrazol-3-yl)thieno[2,3-d]pyrimidin-4-amine] | ≤ 0.05 µM |
| CCS(=O)(=O)n1cc(CN(C)C)c2ccc(-c3nc(Nc4cc(C)[nH]n4)c4cc(C)sc4n3)cc21 [Example 4, 2-(3-((dimethylamino)methyl)-1-(ethylsulfonyl)-1H-indol-6-yl)-6-methyl-N-(5-methyl-1H-pyrazol-3-yl)thieno[2,3-d]pyrimidin-4-amine] | ≤ 0.05 µM |
| CCS(=O)(=O)n1ccc2ccc(-c3nc(Nc4cc(C)[nH]n4)c4cc(C)sc4n3)cc21 [Example 3, 2-(1-(ethylsulfonyl)-1H-indol-6-yl)-6-methyl-N-(5-methyl-1H-pyrazol-3-yl)thieno[2,3-d]pyrimidin-4-amine] | ≤ 0.05 µM |
